Test results from patent publication US20210070748A1, “INHIBITORS OF BRUTONS TYROSINE KINASE” (Pharmacyclics LLC, priority 2015, published 2021).
Like-named read-outs stand apart in the source and are kept apart here.

What was measured:
Assay type in all cases: biochemical
[1] = target: T1, BTK-WT (Homo sapiens, UniProt Q06187); assay: Btk in vitro inhibitory activity (one of Method A TR-FRET, Method B electrophoretic mobility shift, Method C radiometric filter binding); settings: read-out: IC50 BTK-WT
T1 construct: purified from insect cells as a full-length construct containing an N-terminal 6X-His tag; His6 (N); made in house; host or cells: insect cells (baculovirus Sf21 in Method B)
T1 sequence (Q06187 whole entry): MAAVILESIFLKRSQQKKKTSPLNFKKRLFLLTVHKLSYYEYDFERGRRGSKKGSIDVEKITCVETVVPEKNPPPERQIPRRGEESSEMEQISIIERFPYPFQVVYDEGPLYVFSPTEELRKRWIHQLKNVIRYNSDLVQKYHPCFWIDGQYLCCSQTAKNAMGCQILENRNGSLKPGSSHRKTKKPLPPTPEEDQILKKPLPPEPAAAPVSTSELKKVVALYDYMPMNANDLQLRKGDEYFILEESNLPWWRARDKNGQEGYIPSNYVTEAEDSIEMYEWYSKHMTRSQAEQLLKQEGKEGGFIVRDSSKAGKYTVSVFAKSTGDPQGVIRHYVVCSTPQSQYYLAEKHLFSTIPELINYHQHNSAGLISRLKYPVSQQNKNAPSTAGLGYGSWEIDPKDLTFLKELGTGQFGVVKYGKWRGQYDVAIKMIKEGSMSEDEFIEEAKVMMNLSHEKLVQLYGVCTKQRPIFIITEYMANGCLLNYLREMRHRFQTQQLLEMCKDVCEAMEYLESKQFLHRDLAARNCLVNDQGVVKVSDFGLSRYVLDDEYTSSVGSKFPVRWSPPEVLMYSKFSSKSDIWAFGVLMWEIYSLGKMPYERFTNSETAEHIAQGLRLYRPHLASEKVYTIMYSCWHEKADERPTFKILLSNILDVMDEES

[2] = target: LCK (Homo sapiens, UniProt P06239); assay: Inhibition of a panel of kinases, in vitro HotSpot kinase assay: LCK; settings: read-out: IC50 LCK
Sequence of LCK (P06239 whole entry): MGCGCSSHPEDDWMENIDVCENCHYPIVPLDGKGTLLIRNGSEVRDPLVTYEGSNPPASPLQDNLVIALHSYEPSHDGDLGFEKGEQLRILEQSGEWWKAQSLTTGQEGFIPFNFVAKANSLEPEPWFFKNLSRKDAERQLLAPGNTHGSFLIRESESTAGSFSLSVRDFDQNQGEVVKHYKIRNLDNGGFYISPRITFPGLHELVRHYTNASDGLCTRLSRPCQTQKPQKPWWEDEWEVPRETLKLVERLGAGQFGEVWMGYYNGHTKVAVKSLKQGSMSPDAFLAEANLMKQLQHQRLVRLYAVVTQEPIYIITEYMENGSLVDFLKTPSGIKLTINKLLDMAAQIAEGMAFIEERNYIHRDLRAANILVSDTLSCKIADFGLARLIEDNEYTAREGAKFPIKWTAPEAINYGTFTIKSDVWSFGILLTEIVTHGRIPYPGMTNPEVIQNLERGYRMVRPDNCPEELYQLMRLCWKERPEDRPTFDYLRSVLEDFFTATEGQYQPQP

[3] = target: EGFR (Homo sapiens, UniProt P00533); assay: Inhibition of a panel of kinases, in vitro HotSpot kinase assay: EGFR
Sequence of EGFR (P00533 25-1210): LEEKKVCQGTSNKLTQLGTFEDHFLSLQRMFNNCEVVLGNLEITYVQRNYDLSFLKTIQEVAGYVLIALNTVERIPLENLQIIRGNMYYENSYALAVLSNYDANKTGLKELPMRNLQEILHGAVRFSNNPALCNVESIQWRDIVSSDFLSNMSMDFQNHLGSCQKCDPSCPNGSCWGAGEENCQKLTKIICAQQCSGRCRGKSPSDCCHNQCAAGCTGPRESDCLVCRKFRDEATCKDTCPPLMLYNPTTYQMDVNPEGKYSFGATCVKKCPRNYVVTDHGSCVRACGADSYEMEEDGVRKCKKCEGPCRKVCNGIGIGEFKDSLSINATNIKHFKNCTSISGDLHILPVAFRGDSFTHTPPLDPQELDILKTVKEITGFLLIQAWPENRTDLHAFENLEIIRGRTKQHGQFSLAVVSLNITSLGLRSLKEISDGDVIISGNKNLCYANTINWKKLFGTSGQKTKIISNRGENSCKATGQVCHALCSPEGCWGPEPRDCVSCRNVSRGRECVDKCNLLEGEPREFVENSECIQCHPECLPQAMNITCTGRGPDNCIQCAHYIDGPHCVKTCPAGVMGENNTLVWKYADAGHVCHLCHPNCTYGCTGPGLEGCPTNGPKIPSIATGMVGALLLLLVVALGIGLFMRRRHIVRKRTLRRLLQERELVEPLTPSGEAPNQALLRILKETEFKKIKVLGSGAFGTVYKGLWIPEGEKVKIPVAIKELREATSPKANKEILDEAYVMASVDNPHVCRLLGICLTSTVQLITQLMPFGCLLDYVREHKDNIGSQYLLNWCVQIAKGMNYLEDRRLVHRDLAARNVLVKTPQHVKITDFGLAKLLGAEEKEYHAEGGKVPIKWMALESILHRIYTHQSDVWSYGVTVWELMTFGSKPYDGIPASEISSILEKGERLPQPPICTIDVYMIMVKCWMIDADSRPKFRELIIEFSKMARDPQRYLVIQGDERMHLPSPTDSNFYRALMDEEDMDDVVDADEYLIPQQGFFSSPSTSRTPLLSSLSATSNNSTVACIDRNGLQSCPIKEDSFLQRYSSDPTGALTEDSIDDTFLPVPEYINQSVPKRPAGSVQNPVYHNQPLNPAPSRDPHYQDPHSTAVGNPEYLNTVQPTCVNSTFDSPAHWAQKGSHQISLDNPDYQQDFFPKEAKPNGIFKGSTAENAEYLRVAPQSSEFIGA
Experimental: (§1) The degree of inhibition of a panel of kinases is determined using the in vitro HotSpot kinase assay (purified enzymes, ^33P-ATP, an appropriate substrate and 1 μM ATP).

[4] = target: SRC (Homo sapiens, UniProt P12931); assay: Inhibition of a panel of kinases, in vitro HotSpot kinase assay: SRC
Sequence of SRC (P12931 whole entry): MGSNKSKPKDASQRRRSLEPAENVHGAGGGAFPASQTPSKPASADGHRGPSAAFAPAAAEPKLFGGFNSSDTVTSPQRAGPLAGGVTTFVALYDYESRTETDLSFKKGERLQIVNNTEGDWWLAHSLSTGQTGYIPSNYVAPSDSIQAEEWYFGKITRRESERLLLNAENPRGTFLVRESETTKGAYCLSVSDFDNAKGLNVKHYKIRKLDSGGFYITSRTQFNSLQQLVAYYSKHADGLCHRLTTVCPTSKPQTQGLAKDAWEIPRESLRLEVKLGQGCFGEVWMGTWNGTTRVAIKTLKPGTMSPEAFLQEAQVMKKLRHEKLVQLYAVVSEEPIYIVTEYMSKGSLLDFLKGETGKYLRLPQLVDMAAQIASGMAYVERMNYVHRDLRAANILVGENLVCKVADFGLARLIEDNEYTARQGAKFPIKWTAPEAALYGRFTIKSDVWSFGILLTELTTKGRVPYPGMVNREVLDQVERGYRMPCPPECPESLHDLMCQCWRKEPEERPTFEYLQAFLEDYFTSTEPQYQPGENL
Experimental: as §1

[5] = target: T2, TEC (Homo sapiens, UniProt P42680); assay: Inhibition of a panel of kinases, in vitro HotSpot kinase assay: TEC
T2 sequence (P42680 1-631): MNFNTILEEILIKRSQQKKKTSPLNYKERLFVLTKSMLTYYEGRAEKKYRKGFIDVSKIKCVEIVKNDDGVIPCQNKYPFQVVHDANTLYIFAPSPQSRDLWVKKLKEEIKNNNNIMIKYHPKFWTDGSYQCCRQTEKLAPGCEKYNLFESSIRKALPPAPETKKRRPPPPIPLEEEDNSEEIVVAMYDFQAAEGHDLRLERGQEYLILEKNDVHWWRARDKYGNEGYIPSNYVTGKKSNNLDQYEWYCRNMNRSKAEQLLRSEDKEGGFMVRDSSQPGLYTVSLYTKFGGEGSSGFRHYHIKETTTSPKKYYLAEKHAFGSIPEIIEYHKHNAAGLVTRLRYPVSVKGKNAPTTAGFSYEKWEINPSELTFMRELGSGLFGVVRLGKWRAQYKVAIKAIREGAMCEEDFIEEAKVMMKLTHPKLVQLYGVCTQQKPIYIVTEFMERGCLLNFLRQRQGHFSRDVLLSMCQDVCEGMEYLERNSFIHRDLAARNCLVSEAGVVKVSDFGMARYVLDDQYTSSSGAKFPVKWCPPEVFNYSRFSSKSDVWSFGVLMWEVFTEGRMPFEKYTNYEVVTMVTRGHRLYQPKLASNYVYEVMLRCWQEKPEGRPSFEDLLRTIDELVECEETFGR
Experimental: as §1

[6] = D-compounds panel data, 1 μM ATP

Row | SMILES | IC50 ([1]; D-compounds panel data) [nM] | IC50 [2, 6] [nM] | IC50 [3, 6] [nM] | IC50 [4, 6] [nM] | IC50 [5, 6] [nM] | IC50 ([1]; E compounds, Table 17) [nM] | IC50 ([2]; E compounds, Table 17) [nM] | IC50 ([3]; E compounds, Table 17) [nM] | IC50 ([4]; E compounds, Table 17) [nM] | IC50 ([5]; E compounds, Table 17) [nM]
1 | C[C@@H]1[C@H](NC(=O)c2ccc(C(C)(C)C#N)cc2)CCCN1c1cnc(C(N)=O)c(Nc2cnn(C)c2)n1 [Example D-88, 5-[(2R,3R)-3-[4-(1-cyano-1-methylethyl)benzamido]-2-methylpiperidin-1-yl]-3-[(1-methyl-1H-pyrazol-4-yl)amino]pyrazine-2-carboxamide] | ≤ 10 | 100 to 1000 | 1000 to 10000 | 10 to 100 | 10 to 100 |  |  |  |  | 
2 | C[C@@H]1[C@H](NC(=O)c2ccc(C3CC3)cc2)CCCN1c1cnc(C(N)=O)c(Nc2ccc(OC3CCN(C)CC3)cc2)n1 [Example D-89] | ≤ 10 | 10 to 100 | 100 to 1000 | 10 to 100 | 10 to 100 |  |  |  |  | 
3 | C[C@@H]1[C@H](NC(=O)C23CC(C2)C3)CCCN1c1cnc(C(N)=O)c(Nc2cnn(C)c2)n1 [Example D-90, 5-[(2R,3R)-3-{bicyclo[1.1.1]pentane-1-amido}-2-methylpiperidin-1-yl]-3-[(1-methyl-1H-pyrazol-4-yl)amino]pyrazine-2-carboxamide] | 10 to 100 | 100 to 1000 | 1000 to 10000 | 100 to 1000 | 10 to 100 |  |  |  |  | 
4 | C[C@@H]1[C@H](NC(=O)c2ccc(C(F)(F)F)nc2)CCCN1c1cnc(C(N)=O)c(Nc2cnn(C)c2)n1 [Example D-91, 3-[(1-methyl-1H-pyrazol-4-yl)amino]-5-[(2R,3R)-2-methyl-3-[6-(trifluoromethyl)pyridine-3-amido]piperidin-1-yl]pyrazine-2-carboxamide] | ≤ 10 | 10 to 100 | 100 to 1000 | 10 to 100 | 10 to 100 |  |  |  |  | 
5 | C[C@@H]1[C@H](NC(=O)c2ccc(C3CC3)cc2)CCCN1c1cnc(C(N)=O)c(Nc2ccc(N3CCN(C)CC3)c(C(F)(F)F)c2)n1 [Example D-92, 5-[(2R,3R)-3-(4-cyclopropylbenzamido)-2-methylpiperidin-1-yl]-3-{[4-(4-methylpiperazin-1-yl)-3-(trifluoromethyl)phenyl]amino}pyrazine-2-carboxamide] | ≤ 10 | 100 to 1000 | 1000 to 10000 | 100 to 1000 | 10 to 100 |  |  |  |  | 
6 | C[C@@H]1[C@H](N2CCN(C)C2=O)CCCN1c1cnc(C(N)=O)c(Nc2cnn(C)c2)n1 [Example D-93, 3-[(1-methyl-1H-pyrazol-4-yl)amino]-5-[(2R,3R)-2-methyl-3-(3-methyl-2-oxoimidazolidin-1-yl)piperidin-1-yl]pyrazine-2-carboxamide] | 10 to 100 | 100 to 1000 | 1000 to 10000 | 10 to 100 | 10 to 100 |  |  |  |  | 
7 | C[C@@H]1[C@H](NC(=O)c2ccc(C(C)(C)CO)cc2)CCCN1c1cnc(C(N)=O)c(Nc2cnn(C)c2)n1 [Example D-94, 5-[(2R,3R)-3-[4-(1-hydroxy-2-methylpropan-2-yl)benzamido]-2-methylpiperidin-1-yl]-3-[(1-methyl-1H-pyrazol-4-yl)amino]pyrazine-2-carboxamide] | ≤ 10 | 100 to 1000 | 1000 to 10000 | 10 to 100 | 10 to 100 |  |  |  |  | 
8 | C[C@@H]1[C@H](NC(=O)c2ccc(C3CC3)cc2)CCCN1c1cnc(C(N)=O)c(Nc2ccc(CN3CCOCC3)cc2)n1 [Example D-316, 5-[(2R,3R)-3-(4-cyclopropylbenzamido)-2-methylpiperidin-1-yl]-3-{[4-(morpholin-4-ylmethyl)phenyl]amino}pyrazine-2-carboxamide] | ≤ 10 | 10 to 100 | 100 to 1000 | 10 to 100 | 10 to 100 |  |  |  |  | 
9 | C[C@@H]1[C@H](NC(=O)c2ccc(C3CC3)cc2)CCCN1c1cnc(C(N)=O)c(Nc2ccc(C3CCOCC3)cc2)n1 [Example D-317, 5-[(2R,3R)-3-(4-cyclopropylbenzamido)-2-methylpiperidin-1-yl]-3-{[4-(oxan-4-yl)phenyl]amino}pyrazine-2-carboxamide] | ≤ 10 | > 10000 | > 10000 | > 10000 | 10 to 100 |  |  |  |  | 
10 | C[C@@H]1[C@H](NC(=O)c2ccc(C3CC3)cc2)CCCN1c1cnc(C(N)=O)c(Nc2cnc(N3CCN(C)CC3)nc2)n1 [Example D-318, 5-[(2R,3R)-3-(4-cyclopropylbenzamido)-2-methylpiperidin-1-yl]-3-{[2-(4-methylpiperazin-1-yl)pyrimidin-5-yl]amino}pyrazine-2-carboxamide] | ≤ 10 | 100 to 1000 | > 10000 | 100 to 1000 | 10 to 100 |  |  |  |  | 
11 | C[C@@H]1[C@H](NC(=O)c2ccc(C3CC3)cc2)CCCN1c1cnc(C(N)=O)c(Nc2cnn(CC3CCOCC3)c2)n1 [Example D-319, 5-[(2R,3R)-3-(4-cyclopropylbenzamido)-2-methylpiperidin-1-yl]-3-{[1-(oxan-4-ylmethyl)-1H-pyrazol-4-yl]amino}pyrazine-2-carboxamide] | ≤ 10 | 100 to 1000 | 1000 to 10000 | 10 to 100 | ≤ 10 |  |  |  |  | 
12 | C[C@@H]1[C@H](NC(=O)c2ccc(C3CC3)cc2)CCCN1c1cnc(C(N)=O)c(Nc2ccc(N3CCC(C(=O)N(C)C)CC3)cc2)n1 [Example D-320, 5-[(2R,3R)-3-(4-cyclopropylbenzamido)-2-methylpiperidin-1-yl]-3-({4-[4-(dimethylcarbamoyl)piperidin-1-yl]phenyl}amino)pyrazine-2-carboxamide] | ≤ 10 | 10 to 100 | 100 to 1000 | 10 to 100 | ≤ 10 |  |  |  |  | 
13 | C[C@@H]1[C@H](NC(=O)c2ccc(C3CC3)cc2)CCCN1c1cnc(C(N)=O)c(Nc2cnn(CC3CCC(F)(F)CC3)c2)n1 [Example D-321, 5-[(2R,3R)-3-(4-cyclopropylbenzamido)-2-methylpiperidin-1-yl]-3-({1-[(4,4-difluorocyclohexyl)methyl]-1H-pyrazol-4-yl}amino)pyrazine-2-carboxamide] | 10 to 100 | 1000 to 10000 | > 10000 | 100 to 1000 | 10 to 100 |  |  |  |  | 
14 | C=CC(=O)N1CC[C@@H](N(C)c2cnc(C(N)=O)c(Nc3ccc(C4(C)CCN(C5CC5)CC4)cc3)n2)C1 [Example E-104, (R)-5-((1-acryloylpyrrolidin-3-yl)(methyl)amino)-3-(4-(1-cyclopropyl-4-methylpiperidin-4-yl)phenylammo)pyrazine-2-carboxamide] |  |  |  |  |  | ≤ 10 | 10 to 100 | ≤ 10 | 10 to 100 | ≤ 10
15 | C=CC(=O)N1CC[C@@H](N(C)c2cnc(C(N)=O)c(Nc3ccc(C4(C)CCN(C5CCCC5)CC4)cc3)n2)C1 [Example E-106, (R)-5-((1-acryloylpyrrolidin-3-yl)(methyl)amino)-3-(4-(1-cyclopentyl-4-methylpiperidin-4-yl)phenylamino)pyrazine-2-carboxamide] |  |  |  |  |  | ≤ 10 | 10 to 100 | ≤ 10 | ≤ 10 | ≤ 10
16 | C=CC(=O)N1CCC[C@@H](Nc2cnc(C(N)=O)c(Nc3ccc(C4CCN(C5CCCC5)CC4)cc3)n2)C1 [Example E-108, (R)-5-(1-acryloylpiperidin-3-ylamino)-3-(4-(1-cyclopentylpiperidin-4-yl)phenylamino)pyrazine-2-carboxamide] |  |  |  |  |  | ≤ 10 | 10 to 100 | ≤ 10 | 10 to 100 | ≤ 10
